The values below come from US20240117269A1, “NOVEL AROMATIC MONOTHIOKETALS AS FRAGRANCE COMPOUNDS” (SYMRISE AG, priority 2019, published 2024).

This assay can be described thus: Odor detection threshold (ODT), dynamic olfactometer TO8, expert group, EN 13725. Conditions: in air. On the procedure:
The odor perception threshold, i.e. the ODT value (“odor detection threshold”), was determined using a dynamic olfactometer designated TO8 and a group of experts in accordance with the EN 13725 standard, in which an odorous air sample is diluted with clean air. The dilution is presented to the test persons (testers) for evaluation. The odor description was carried out by a group of experts comprising 10 members.

Take `CC1OCc2ccccc2S1` (centres unmarked) [2-methyl-4H-3,1-benzoxathiin]: the ODT value is 3.6 ng/L.

`c1ccc2c(c1)COCS2` [4H-3,1-benzoxathiin] had an ODT value of 43.6 ng/L.
